Several values for one entry are separate records, joined by “and”; a condition that tells them apart may be missing. Identical values can stand only once.

The target in the experiment is DNA topoisomerase II (Homo sapiens) (UniProt P11388+Q02880). The experiment is described as follows: Percentage of intracellular covalent DNA-topoisomerase II complexes formed. It is filed as cell-based.
`COc1cc([C@@H]2c3cc(O)c(O)cc3C(Nc3ccc(F)cc3)[C@H]3COC(=O)[C@H]23)cc(OC)c1O` (stereo partly drawn) yielded a Complex formation of 52%.
The figure for `COc1cccc(N[C@@H]2c3cc4c(cc3[C@@H](c3cc(OC)c(O)c(OC)c3)[C@H]3C(=O)OC[C@@H]32)OCO4)c1` is 104%; for `COC(=O)c1cccc(N[C@@H]2c3cc4c(cc3[C@@H](c3cc(OC)c(O)c(OC)c3)[C@H]3C(=O)OC[C@@H]32)OCO4)c1` it is 249%; for `COc1cc([C@@H]2c3cc4c(cc3[C@@H](Nc3ccc(NC(=O)c5cc([N+](=O)[O-])cn5C)cc3)[C@H]3COC(=O)[C@H]23)OCO4)cc(OC)c1O` it is 100%.
Consider `COc1cc([N+](=O)[O-])ccc1N[C@@H]1c2cc3c(cc2[C@@H](c2cc(OC)c(O)c(OC)c2)[C@H]2C(=O)OC[C@@H]21)OCO3`, for which the Complex formation is 83%.
Take `COc1cc([C@@H]2c3cc4c(cc3[C@@H](NC(=O)c3ccccc3O)[C@H]3COC(=O)[C@H]23)OCO4)cc(OC)c1O`: the Complex formation was found to be 160%.
In turn, `COc1cc([C@@H]2c3cc4c(cc3C(Nc3ccc5c(c3)OCCO5)[C@H]3COC(=O)[C@H]23)OCO4)cc(O)c1O` (stereo partly drawn) registered a Complex formation of 119%.
`COc1cc([C@@H]2c3cc4c(cc3[C@@H](NCc3cccc(N)c3)[C@H]3COC(=O)[C@H]23)OCO4)cc(OC)c1O` returned a Complex formation of 191%.
Regarding `COc1cc([C@@H]2c3cc4c(cc3[C@@H](O[C@@H]3O[C@@H]5CO[C@@H](C)O[C@H]5[C@H](O)[C@H]3O)[C@H]3COC(=O)[C@H]23)OCO4)cc(OC)c1O`, the Complex formation was 100%.
On to `COc1cc([C@@H]2c3cc4c(cc3[C@@H](Nc3ccc(Oc5ccccc5)cc3)[C@H]3COC(=O)[C@H]23)OCO4)cc(OC)c1O`, for which the Complex formation is 97%.
Under `COc1cc([C@@H]2c3cc(O)c(O)cc3C(Nc3ccc(C#N)cc3)[C@H]3COC(=O)[C@H]23)cc(OC)c1O` (stereo partly drawn) stands 62%; under `COc1cc([C@@H]2c3cc4c(cc3[C@@H](NCc3ccc([N+](=O)[O-])cc3)[C@H]3COC(=O)[C@H]23)OCO4)cc(OC)c1O`, 216%.
Under `COc1cc([C@@H]2c3cc(O)c(O)cc3[C@@H](Nc3ccc([N+](=O)[O-])cc3)[C@H]3COC(=O)[C@H]23)cc(OC)c1O` stands 99%; under `COc1cc([C@@H]2c3cc4c(cc3[C@@H](Nc3cccc(N)c3)[C@H]3COC(=O)[C@H]23)OCO4)cc(OC)c1O`, 140%; under `COc1cc([C@@H]2c3cc4c(cc3[C@@H](NC(=O)c3cccc(N)c3)[C@H]3COC(=O)[C@H]23)OCO4)cc(OC)c1O`, 149%.
The figure for `COc1cc([C@@H]2c3cc4c(cc3[C@@H](NCc3ccc(F)cc3)[C@H]3COC(=O)[C@H]23)OCO4)cc(OC)c1O` is 169%.
In turn, `COc1cc([C@@H]2c3cc4c(cc3[C@@H](NCc3cccc(F)c3)[C@H]3COC(=O)[C@H]23)OCO4)cc(OC)c1O` had a Complex formation of 216%.
The figure for `COc1cc([C@@H]2c3cc4c(cc3[C@@H](NCCCN(C)C)[C@H]3COC(=O)[C@H]23)OCO4)cc(OC)c1O` is 179% and 186%; for `COc1cc([C@@H]2c3cc(O)c(O)cc3[C@@H](Nc3cccc(O)c3)[C@H]3COC(=O)[C@H]23)cc(OC)c1O` it is 18%; for `COc1cc([C@@H]2c3cc4c(cc3[C@@H](N[C@H](C)CO)[C@H]3COC(=O)[C@H]23)OCO4)cc(OC)c1O` it is 162%.
Under `COc1cc([C@@H]2c3cc4c(cc3[C@@H](NCc3ccccc3[N+](=O)[O-])[C@H]3COC(=O)[C@H]23)OCO4)cc(OC)c1O` stands 144%; under `COc1cc([C@@H]2c3cc4c(cc3[C@@H](Nc3cccc(F)c3)[C@H]3COC(=O)[C@H]23)OCO4)cc(OC)c1O`, 158%; under `COc1cc([C@@H]2c3cc(O)c(O)cc3[C@@H](Nc3ccccc3)[C@H]3COC(=O)[C@H]23)cc(OC)c1OC`, 9%.
Under `COc1cc([C@@H]2c3cc4c(cc3[C@@H](Sc3ccc(O)cc3)[C@H]3COC(=O)[C@H]23)OCO4)cc(OC)c1O` stands 10%; under `CCOC(=O)c1ccccc1N[C@@H]1c2cc3c(cc2[C@@H](c2cc(OC)c(O)c(OC)c2)[C@H]2C(=O)OC[C@@H]21)OCO3`, 4%; under `COc1cc([C@@H]2c3cc4c(cc3[C@@H](NCc3ccccc3N)[C@H]3COC(=O)[C@H]23)OCO4)cc(OC)c1O`, 184%.
`COc1cc2c(cc1OC)[C@@H](Nc1ccc([N+](=O)[O-])cc1)[C@H]1COC(=O)[C@@H]1[C@@H]2c1cc(OC)c(OC)c(OC)c1` showed a Complex formation of 8%.
Under `COc1cc([C@@H]2c3cc4c(cc3[C@@H](NC(=O)c3cccc([N+](=O)[O-])c3)[C@H]3COC(=O)[C@H]23)OCO4)cc(OC)c1O` stands 86%.
Under `COc1cc([C@@H]2c3cc4c(cc3[C@@H](Nc3ccc(NC(=O)c5cc(NC(=O)c6cc([N+](=O)[O-])cn6C)cn5C)cc3)[C@H]3COC(=O)[C@H]23)OCO4)cc(OC)c1O` stands 26%.
The figure for `C=CCN[C@@H]1c2cc3c(cc2[C@@H](c2cc(OC)c(O)c(OC)c2)[C@H]2C(=O)OC[C@@H]21)OCO3` is 84.1%; for `COc1cc([C@@H]2c3cc4c(cc3[C@@H](Nc3ccc(I)cc3)[C@H]3COC(=O)[C@H]23)OCO4)cc(OC)c1O` it is 64%.
Regarding `COc1cc([C@@H]2c3cc4c(cc3[C@@H](NC(=O)c3ccccc3)[C@H]3COC(=O)[C@H]23)OCO4)cc(OC)c1O`, the Complex formation turned out to be 177%.
Under `COc1cc([C@@H]2c3cc4c(cc3[C@@H](NCc3cccc(C#N)c3)[C@H]3COC(=O)[C@H]23)OCO4)cc(OC)c1O` stands 225%; under `COc1cc([C@@H]2c3cc4c(cc3[C@@H](Nc3ccc(C#N)cc3)[C@H]3COC(=O)[C@H]23)OCO4)cc(OC)c1O`, 211%; under `COc1cc([C@@H]2c3cc4c(cc3[C@@H](O)[C@H]3COC(=O)[C@H]23)OCO4)c(Cl)c(OC)c1O`, 15.6%.
`COC(=O)c1cc(N[C@@H]2c3cc4c(cc3[C@@H](c3cc(OC)c(O)c(OC)c3)[C@H]3C(=O)OC[C@@H]32)OCO4)ccc1O` displayed a Complex formation of 83%.
On to `COc1cc([C@@H]2c3cc4c(cc3[C@@H](Nc3ccc(O)cc3)[C@H]3COC(=O)[C@H]23)OCO4)cc(OC)c1O`, for which the Complex formation amounted to 211%.
With `CCOC(=O)c1ccc(N[C@@H]2c3cc4c(cc3[C@@H](c3cc(OC)c(O)c(OC)c3)[C@H]3C(=O)OC[C@@H]32)OCO4)cc1`, the Complex formation came out at 207%.
On to `COc1cc([C@@H]2c3cc4c(cc3[C@@H](NCc3ccccc3F)[C@H]3COC(=O)[C@H]23)OCO4)cc(OC)c1O`, for which the Complex formation stood at 126%.
`COc1cc([C@@H]2c3cc4c(cc3C(Nc3ccc([N+](=O)[O-])cc3)[C@H]3COC(=O)[C@H]23)OCO4)cc(O)c1O` (stereo partly drawn) showed a Complex formation of 200%.
The figure for `CCOC(=O)c1ccc(NC2c3cc(OC)c(OC)cc3[C@@H](c3cc(OC)c(OC)c(OC)c3)[C@H]3C(=O)OC[C@H]23)cc1` (stereo partly drawn) is 9%; for `COc1cc([C@@H]2c3cc4c(cc3C(Nc3ccc(C#N)cc3)[C@H]3COC(=O)[C@H]23)OCO4)cc(O)c1O` (stereo partly drawn) it is 146%; for `COc1cc([C@@H]2c3cc(O)c(O)cc3[C@@H](Nc3cccc(O)c3)[C@H]3COC(=O)[C@H]23)cc(OC)c1OC` it is 4%.

Source of the values: ChEMBL document CHEMBL1135425, “Antitumor agents. 213. Modeling of epipodophyllotoxin derivatives using variable selection k nearest neighbor QSAR method” (J Med Chem, 2002).
